Measurements from patent publication US8889631B2, “Disruptors of early/recycling endosomes” (The University of Kansas, priority 2008, dated 2014).
Entries after “also recorded” stand apart in the source; their conditions may differ. Square brackets hold non-standard residues; d marks the D form. Peptide text beside a SMILES is read from it. * marks the point of attachment. Pentanoyl(5-NH-cholesteryl) = CC(C)CCC[C@@H](C)[C@H]1CC[C@H]2[C@@H]3CC=C4C[C@@H](NCCCCC(=O)*)CC[C@]4(C)[C@H]3CC[C@]12C; X1 = O=C(O)c1c(Cl)cc(C(=O)*)c(Cl)c1-c1c2cc(Cl)c(=O)c(Cl)c-2oc2c(Cl)c(O)c(Cl)cc12; Ahx = NCCCCCC(=O)O

Experiments:
Jurkat lymphocytes [1] = experiment: Cytotoxicity assay (CellTiter-Glo), Jurkat cells; format: cell-based, human; conditions: 2 μM, 48 h at 37° C.
Description: Jurkat lymphocytes (7×10^4) in media (100 μL) were loaded on a 96-well plate. To these cells were added increasing concentrations of Compound 1 in DMSO (final [DMSO]=1%). After incubation for 48 h, cells from each well (10 μL) were transferred to an opaque 96-well plate containing PBS (170 μL per well) and treated with CellTiter-Glo reagent (20 μL, Promega) according to the Promega protocol provided with the reagent. After incubation at ambient temperature (22° C.) for 10 min, the luminescence of the samples was measured with a Packard Fusion microplate reader.

Jurkat lymphocytes [2] = experiment: Toxicity of colchicine-cholesterylamine Compound 30 with or without Compound 1, DIC micrographs; format: cell-based, human; conditions: 2 μM; 48 h
Description: FIGS. 11B-11E show DIC micrographs of Jurkat lymphocytes treated for 48 h with DMSO (FIG. 11B), Compound 1 (FIG. 11C), Compound 30 (FIG. 11D, and Compounds 1 and 30 (FIG. 11E).
The delivery system was studied with the anticancer agent colchicine being linked to the N-alkyl-3β-cholesterylamine via a disulfide, which compound is Compound 30 as shown in FIG. 11A. The delivery system utilized Compound 1 to release the anticancer agent colchicine from Compound 30. Colchicine was linked to an N-alkyl-3β-cholesterylamine via a disulfide linker to present a compound that is non-toxic to Jurkat lymphocytes at 200 nM. The cholesterylamine-PC4 peptide (Compound 1) is similarly non-toxic at 2 μM. However, the combination of these two compounds (Compound 1+Compound 30) is lethal to lymphocytes because Compound 1 enables release of the toxic colchicine derivative (FIGS. 11B-11E). […] It is thought that tumor-specific proteases capable of cleaving a peptide bond linking N-alkyl-3β-cholesterylamines to doxorubicin or other cancer agent will similarly enable the specific delivery of drugs to cognate cancer cells. Also, a cell type specific protease can be used for controlling delivery of the agent into the cytosol of those cell types.

CHO cells [3] = experiment: Cytotoxicity assay (CellTiter-Glo), CHO cells; format: cell-based, Chinese hamster; conditions: 8 μM, 48 h at 37° C.
Description: Trypsinized CHO cells (2×10^3) in media (100 μL) were loaded on a 96-well plate. After incubation for 36 h, the media was replaced with fresh media (100 μL) containing increasing concentrations of Compound 1 in DMSO (final [DMSO]=1%). After 48 h of incubation, the cells in each well were washed with PBS (2×100 μL) and detached by treatment with a solution of trypsin (50 μL, 5 min). The cell suspension (10 μL) was transferred to an opaque 96-well plate containing PBS (170 μL per well) and treated with CellTiter-Glo reagent (20 μL, Promega) according to the Promega protocol provided with the reagent. After incubation at ambient temperature (22° C.) for 10 min, the luminescence of the samples was measured with a Packard Fusion microplate reader.

CHO cells [4] = experiment: Release of fluorescent cargo from early/recycling endosomes, confocal microscopy, CHO cells; format: cell-based, Chinese hamster; conditions: for release of green fluorescence of Compound 3 from early/recycling endosomes by the endosome disruptor: Compound 3 (5 μM) and Compounds 1, 2, or 5 (8 μM) for 24 h; for release of the fluorophore of the cargo compound when combined with Compound 1 or Compound 2: Compound 3 or Compound 4 (5 μM), disruptor 8 μM, 24 h
Description: (§1) FIG. 4A-4J show confocal fluorescence and DIC micrographs of living cells treated with fluorescent probes. FIGS. 4A-4F show CHO cells were treated with Compound 3 or Compound 4 (5 μM) and Compounds 1, 2, or 5 (8 μM) for 24 h. In FIG. 4F, [chloroquine]=5 μM. In FIGS. 4G-4J, Jurkat lymphocytes were treated with Compound 3 or Compound 4 (2.5 μM) and Compound 1 or Compound 5 (2 μM) for 12 h.
(§2) A Zeiss LSM 5 Pascal confocal laser-scanning microscope fitted with a Plan Apochromat objective (63×) was employed. Fluorescein and Alexa Fluor-488 were excited with a 488 nm Argon ion laser (25 mW, 1% laser power) and emitted photons were collected through 505 nm LP filter. Excitation of 6-Hex, Texas Red, and DiI employed a 543 nm HeNe laser and emitted photons were collected through a 560 nm LP filter.

Jurkat lymphocytes [5] = experiment: Release of fluorescent cargo from early/recycling endosomes, confocal microscopy, Jurkat lymphocytes; format: cell-based, human; conditions: for release of green fluorescence of Compound 3 from early/recycling endosomes by the endosome disruptor: Compound 3 (2.5 μM) and disruptor (2 μM) for 12 h; for release of the fluorophore of the cargo compound when combined with Compound 1: Compound 3 or Compound 4 (2.5 μM), Compound 1 (2 μM), 12 h
Description: as §1
Jurkat cells were treated with green fluorescent Compound 3 (2.5 μM) and red fluorescent Compound 2 (2 μM) for 12 h at 37° C. In FIG. 9B, bafilomycin A1 (1 μM), a vacuolar H^+ ATPase inhibitor that blocks acidification of endosomes, was added. FIG. 9A is without bafilomyin. Cells were washed with media and imaged by DIC and confocal laser scanning microscopy.
as §2

Jurkat lymphocytes [6] = experiment: Inhibiting endosome acidification, Jurkat cells (bafilomycin A1); format: cell-based, human; conditions: bafilomycin A1 1 μM, Compound 3 (2.5 μM) and Compound 2 (2 μM), 12 h, 37° C.
Description: Jurkat lymphocytes (5×10^5) in media (500 μL) were pretreated with bafilomycin A1 (final concentration=1 μM) in DMSO (final [DMSO]=2%) for 1 h. […] After incubation at 37° C. for 12 h, the cells were washed with fresh media (500 μL) and resuspended in fresh media (125 μL) for analysis by confocal microscopy.

CHO cells [7] = experiment: Inhibiting endosome acidification, CHO cells (chloroquine); format: cell-based, Chinese hamster; conditions: chloroquine 5 μM, Compound 3 (5 μM) and Compound 2 (8 μM), 24 h
Description: Exponentially growing CHO cells were cultivated on round collagen-coated coverslips (22 mm, BD BioCoat) in a six-well plate (1.2×10^5 cells/well, 2 mL). After 24 h, the media was replaced with fresh media containing chloroquine (final concentration=5 μM) in DMSO (final [DMSO]=1%) and cells were incubated at 37° C. for 1 h. The media was replaced with fresh media containing Compound 3 (5 μM) and Compound 2 (concentration=8 μM) in DMSO (final [DMSO]=1%) with or without chloroquine […] (final concentration=5 μM) in DMSO (final [DMSO]=1%). The cells were incubated at 37° C. for 24 h. The cells were washed with PBS (2×2 mL) prior to analysis by confocal microscopy.

Jurkat lymphocytes [8] = experiment: Dose dependence of endosomal escape quantified by flow cytometry, Jurkat lymphocytes; format: cell-based, human; conditions: Compound 3 (2.5 μM) with increased amounts of Compound 1, or Compound 5 at 8 micromolar, 12 h, 37° C.
Description: (§3) Cellular fluorescence was analyzed by flow cytometry.
(§4) Analyses were performed with a Beckman-Coulter XL-MCL bench-top flow cytometer. Forward-scatter (FS) and side-scatter (SSC) dot plots afforded cellular physical properties of size and granularity that allowed gating of live cells. After gating, 10,000 cells were counted. In studies of endosomal release of fluorescein derivative Compound 6 mediated by Compound 1, the fluorophore was excited at 488 nm with a 15 mW air-cooled argon-ion laser, the emission was split with a 550 nm dichroic and filtered through a 510 nm long pass filter and 530/30-nm band pass filter using the XL-MCL cytometer. The PMT voltage for this instrument was set to 501 for Jurkat cells and 524 for CHO cells.

CHO cells [9] = experiment: Dose dependence of endosomal escape quantified by flow cytometry, CHO cells; format: cell-based, Chinese hamster; conditions: Compound 3 (5 μM) with increased amounts of Compound 1, or Compound 5 at 8 micromolar, 24 h, 37° C.
Description: as §3, §4

CC(C)CCC[C@@H](C)[C@H]1CC[C@H]2[C@@H]3CC=C4C[C@@H](NCCCCC(=O)N[C@@H](CCC(=O)O)C(=O)N[C@@H](CCC(=O)O)C(=O)NCCCCCC(=O)NCCCCCC(=O)N[C@@H](CO)C(=O)N[C@@H](CO)C(=O)N[C@@H](C)C(=O)N[C@@H](Cc5c[nH]c6ccccc56)C(=O)N[C@@H](Cc5c[nH]c6ccccc56)C(=O)N[C@@H](CO)C(=O)N[C@@H](Cc5ccc(O)cc5)C(=O)N[C@@H](Cc5c[nH]c6ccccc56)C(=O)N5CCC[C@H]5C(=O)N5CCC[C@H]5C(=O)N[C@H](C(=O)N[C@@H](C)C(N)=O)C(C)C)CC[C@]4(C)[C@H]3CC[C@]12C [Compound 1, N-[6-({6-[(N-{5-(3β-Cholest-5-en-3-ylammonio)pentanoyl}-5-oxidanidyl-5-oxidanylidene-L-norvalyl-5-oxidanidyl-5-oxidanylidene-L-norvalyl)amino]hexanoyl}amino)hexanoyl]-L-seryl-L-seryl-L-alanyl-L-tryptophyl-L-tryptophyl-L-seryl-L-tyrosyl-L-tryptophyl-L-prolyl-L-prolyl-L-valyl-L-alaninamide] ({Pentanoyl(5-NH-cholesteryl)}-EE[Ahx][Ahx]SSAWWSYWPPVA-NH2)
toxicity (cellular viability) (Jurkat lymphocytes [1]): non-toxic | toxicity to Jurkat lymphocytes (Jurkat lymphocytes [2]): non-toxic | toxicity (cellular viability) (CHO cells [3]): non-toxic

CC(C)CCC[C@@H](C)[C@H]1CC[C@H]2[C@@H]3CC=C4C[C@@H](NCCCCC(=O)N[C@@H](CCC(=O)O)C(=O)N[C@@H](CCCCNC(=O)c5cc(Cl)c(C(=O)O)c(-c6c7cc(Cl)c(=O)c(Cl)c-7oc7c(Cl)c(O)c(Cl)cc67)c5Cl)C(=O)NCCCCCC(=O)NCCCCCC(=O)N[C@@H](CO)C(=O)N[C@@H](CO)C(=O)N[C@@H](C)C(=O)N[C@@H](Cc5c[nH]c6ccccc56)C(=O)N[C@@H](Cc5c[nH]c6ccccc56)C(=O)N[C@@H](CO)C(=O)N[C@@H](Cc5ccc(O)cc5)C(=O)N[C@@H](Cc5c[nH]c6ccccc56)C(=O)N5CCC[C@H]5C(=O)N5CCC[C@H]5C(=O)N[C@H](C(=O)N[C@@H](C)C(N)=O)C(C)C)CC[C@]4(C)[C@H]3CC[C@]12C [Compound 2, N-(6-{[6-({N-{5-(3β-Cholest-5-en-3-ylammonio)pentanoyl}-5-oxidanidyl-5-oxidanylidene-L-norvalyl-N^6-[4-carboxy-2,5-dichloro-3-(2,4,5,7-tetrachloro-6-hydroxy-3-oxo-3H-xanthen-9-yl)benzoyl]-L-lysyl}amino)hexanoyl]amino}hexanoyl)-L-seryl-L-seryl-L-alanyl-L-tryptophyl-L-tryptophyl-L-seryl-L-tyrosyl-L-tryptophyl-L-prolyl-L-prolyl-L-valyl-L-alaninamide] ({Pentanoyl(5-NH-cholesteryl)}-EK(X1)[Ahx][Ahx]SSAWWSYWPPVA-NH2)
release of green fluorescence of Compound 3 from early/recycling endosomes by the endosome disruptor (CHO cells [4]): fluorescence was observed in the cytosol and nucleus | release of green fluorescence of Compound 3 from early/recycling endosomes by the endosome disruptor (Jurkat lymphocytes [5]): endosomal escape

CC(C)CCC[C@@H](C)[C@H]1CC[C@H]2[C@@H]3CC=C4C[C@@H](NCCCNC(=O)[C@H](CCC(=O)O)NC(=O)[C@H](CCC(=O)O)NC(=O)CCSSCCNC(=O)c5ccc(-c6c7ccc(=O)cc-7oc7cc(O)ccc67)c(C(=O)O)c5)CC[C@]4(C)[C@H]3CC[C@]12C [Compound 3, (11S,14S)-11-(2-Carboxylatoethyl)-1-[3-carboxylato-4-(6-oxido-3-oxo-3H-xanthen-9-yl)phenyl]-14-[({3-(3β-cholest-5-en-3-ylammonio)propyl}amino)carbonyl]-1,9,12-trioxo-5,6-dithia-2,10,13-triazaheptadecan-17-oate]
release of the fluorophore of the cargo compound when combined with Compound 1 or Compound 2 (CHO cells [4]): released from entrapment in early/recycling endosomes | release of the fluorophore of the cargo compound when combined with Compound 1 (Jurkat lymphocytes [5]): released from entrapment in early/recycling endosomes

CC(C)CCC[C@@H](C)[C@H]1CC[C@H]2[C@@H]3CC=C4C[C@@H](NCCCNC(=O)[C@H](CCC(=O)O)NC(=O)[C@H](CCC(=O)O)NC(=O)CCNC(=O)CCNC(=O)c5ccc(-c6c7ccc(=O)cc-7oc7cc(O)ccc67)c(C(=O)O)c5)CC[C@]4(C)[C@H]3CC[C@]12C [Compound 4, (11S,14S)-11-(2-Carboxylatoethyl)-1-[3-carboxylato-4-(6-oxido-3-oxo-3H-xanthen-9-yl)phenyl]-14-[({3-(3β-cholest-5-en-3-ylammonio)propyl}amino)carbonyl]-1,5,9,12-tetraoxo-2,6,10,13-tetraazaheptadecan-17-oate]
release of the fluorophore of the cargo compound when combined with Compound 1 or Compound 2 (CHO cells [4]): blocked release of the fluorophore | release of the fluorophore of the cargo compound when combined with Compound 1 (Jurkat lymphocytes [5]): blocked release of the fluorophore

CO/C1=C\C(C)=C\[C@@H](C)[C@@H](O)[C@@H](C)C/C(C)=C/C=C/[C@H](OC)[C@@H]([C@@H](C)[C@@H](O)[C@H](C)[C@@]2(O)C[C@@H](O)[C@H](C)[C@@H](C(C)C)O2)OC1=O [bafilomycin A1]
effect of raising endosomal pH on release of the fluorophore (endosomal escape) (Jurkat lymphocytes [6]): blocked release of the fluorophore; also recorded: retention in endosomes

CCN(CC)CCCC(C)Nc1ccnc2cc(Cl)ccc12 (stereo not drawn) [chloroquine]
effect of raising endosomal pH on release of the fluorophore (CHO cells [7]): blocked release of the fluorophore

Ac-SSAWWSYWPPVA-NH2 [Compound 5, N-Acetyl-L-seryl-L-seryl-L-alanyl-L-tryptophyl-L-tryptophyl-L-seryl-L-tyrosyl-L-tryptophyl-L-prolyl-L-prolyl-L-valyl-L-alaninamide, reference compound]
cellular fluorescence (endosomal escape) by flow cytometry (Jurkat lymphocytes [8]): did not increase fluorescence | release of green fluorescence of Compound 3 from early/recycling endosomes by the endosome disruptor (CHO cells [4]): little effect | cellular fluorescence (endosomal escape) by flow cytometry (CHO cells [9]): did not increase fluorescence | release of green fluorescence of Compound 3 from early/recycling endosomes by the endosome disruptor (Jurkat lymphocytes [5]): little effect
